What all share (type): biochemical
The target in one assay is T1, Lck (Homo sapiens, UniProt P06239).
T1 construct: Kinases are expressed as either kinase domains or full length constructs; made in house
As to the kind of experiment: Kinase inhibition assay (33P transfer), Lck. To be noted: Table 3; read-out: Lck-1. In outline: (§1)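 Enzyme activity is taken as the amount of 33PO4 moved from ATP onto poly(Glu, Tyr) 4:1 or poly(Arg, Ser) 3:1 fixed to the plate surface. Unbound label is removed with 0.5% phosphoric acid before scintillation counting.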

The target in a further assay is T2, Src (Homo sapiens, UniProt P12931).
T2 construct: Kinases are expressed as either kinase domains or full length constructs; made in house
In words: Kinase inhibition assay (33P transfer), Src. As to conditions: Table 6, Src-1 kinase inhibition class. Summed up: (§2)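 Using immobilised substrate copolymers (poly(Glu,Tyr) 4:1; poly(Arg,Ser) 3:1) and [33P]ATP, purified fusion kinases were allowed to react; plates were then rinsed in 0.5% phosphoric acid and counted in a scintillation detector. Half-maximal inhibition of label transfer defines IC50.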

For another assay, the target named is T3, Fyn (Homo sapiens, UniProt P06241).
T3 construct: Kinases are expressed as either kinase domains or full length constructs; made in house
As to the kind of experiment: Kinase inhibition assay (33P transfer), Fyn. As to conditions: read-out: Fyn-1. In outline:
as §2

The target in a further assay is T4, Itk (Homo sapiens, UniProt Q08881).
T4 construct: Kinases are expressed as either kinase domains or full length constructs; made in house
T4 sequence (Q08881 1-620): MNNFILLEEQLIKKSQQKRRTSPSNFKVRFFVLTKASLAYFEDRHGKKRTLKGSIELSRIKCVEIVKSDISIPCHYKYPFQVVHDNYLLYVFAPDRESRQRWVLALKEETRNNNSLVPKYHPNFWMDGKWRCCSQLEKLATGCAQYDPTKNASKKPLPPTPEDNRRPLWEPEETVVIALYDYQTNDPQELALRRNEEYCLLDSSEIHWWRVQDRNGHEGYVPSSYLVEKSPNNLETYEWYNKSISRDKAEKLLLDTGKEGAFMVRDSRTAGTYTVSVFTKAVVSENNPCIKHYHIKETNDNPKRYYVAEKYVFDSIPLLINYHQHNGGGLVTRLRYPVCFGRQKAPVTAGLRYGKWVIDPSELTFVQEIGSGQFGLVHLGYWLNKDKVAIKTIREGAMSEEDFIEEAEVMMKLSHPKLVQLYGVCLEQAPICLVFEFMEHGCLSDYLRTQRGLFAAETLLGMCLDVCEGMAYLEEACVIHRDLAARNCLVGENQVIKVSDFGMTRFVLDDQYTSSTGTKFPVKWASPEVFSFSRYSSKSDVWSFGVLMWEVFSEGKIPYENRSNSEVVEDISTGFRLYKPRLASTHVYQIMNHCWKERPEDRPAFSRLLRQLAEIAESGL
As to the kind of experiment: Kinase inhibition assay (33P transfer), Itk. As to conditions: Table 3; read-out: Itk-1. In outline:
as §2

Another assay deals with T5, EGFR (Homo sapiens, UniProt P00533).
T5 construct: Kinases are expressed as either kinase domains or full length constructs; made in house
In words: Kinase inhibition assay (33P transfer), EGFR. As to conditions: Table 2, kinase inhibition class; read-out: EGFR-1. In outline:
as §2

Another assay concerns the target T6, Kdr (Homo sapiens, UniProt P35968).
T6 construct: Kinases are expressed as either kinase domains or full length constructs; made in house
As to the kind of experiment: Kinase inhibition assay (33P transfer), Kdr. To be noted: Table 3; read-out: KDR-1. In outline:
as §1

The target in another assay is T7, Flt-1 (Homo sapiens, UniProt P17948).
T7 construct: Kinases are expressed as either kinase domains or full length constructs; made in house
As to the kind of experiment: Kinase inhibition assay (33P transfer), Flt-1. Summed up: as §2

The target in a further assay is T8, c-Met (Homo sapiens, UniProt P08581).
T8 construct: Kinases are expressed as either kinase domains or full length constructs; made in house
As to the kind of experiment: Kinase inhibition assay (33P transfer), c-Met. To be noted: Table 2, kinase inhibition class; read-out: Met-1. In outline: as §2

The target in a further assay is T9, AKT (Homo sapiens, UniProt Q9Y243).
T9 construct: Kinases are expressed as either kinase domains or full length constructs; made in house
As to the kind of experiment: Kinase inhibition assay (33P transfer), AKT. To be noted: Table 2, kinase inhibition class; read-out: AKT3-1. In outline: as §1

The target of the next assay is T10, IGFR-1 (Homo sapiens, UniProt P08069).
T10 construct: Kinases are expressed as either kinase domains or full length constructs; made in house
As to the kind of experiment: Kinase inhibition assay (33P transfer), IGFR-1. To be noted: Table 2, kinase inhibition class.

The next assay deals with T11, PDGFRB (Homo sapiens, UniProt P09619).
T11 construct: Kinases are expressed as either kinase domains or full length constructs; made in house
As to the kind of experiment: Kinase inhibition assay (33P transfer), PDGFRB. As to conditions: read-out: PDGFRB-1.

The target in another assay is T12, Hck-1 (Homo sapiens, UniProt P08631).
T12 construct: Kinases are expressed as either kinase domains or full length constructs; made in house
In words: Kinase inhibition assay (33P transfer), Hck. To be noted: Table 6, Hck-1 kinase inhibition class.

The next assay deals with T13, FGFR1 (Homo sapiens, UniProt P11362).
T13 construct: Kinases are expressed as either kinase domains or full length constructs; made in house
As to the kind of experiment: Kinase inhibition assay (33P transfer), FGFR1. As to conditions: read-out: FGFR1-1.

T6 sequence (P35968 20-1356, species assumed): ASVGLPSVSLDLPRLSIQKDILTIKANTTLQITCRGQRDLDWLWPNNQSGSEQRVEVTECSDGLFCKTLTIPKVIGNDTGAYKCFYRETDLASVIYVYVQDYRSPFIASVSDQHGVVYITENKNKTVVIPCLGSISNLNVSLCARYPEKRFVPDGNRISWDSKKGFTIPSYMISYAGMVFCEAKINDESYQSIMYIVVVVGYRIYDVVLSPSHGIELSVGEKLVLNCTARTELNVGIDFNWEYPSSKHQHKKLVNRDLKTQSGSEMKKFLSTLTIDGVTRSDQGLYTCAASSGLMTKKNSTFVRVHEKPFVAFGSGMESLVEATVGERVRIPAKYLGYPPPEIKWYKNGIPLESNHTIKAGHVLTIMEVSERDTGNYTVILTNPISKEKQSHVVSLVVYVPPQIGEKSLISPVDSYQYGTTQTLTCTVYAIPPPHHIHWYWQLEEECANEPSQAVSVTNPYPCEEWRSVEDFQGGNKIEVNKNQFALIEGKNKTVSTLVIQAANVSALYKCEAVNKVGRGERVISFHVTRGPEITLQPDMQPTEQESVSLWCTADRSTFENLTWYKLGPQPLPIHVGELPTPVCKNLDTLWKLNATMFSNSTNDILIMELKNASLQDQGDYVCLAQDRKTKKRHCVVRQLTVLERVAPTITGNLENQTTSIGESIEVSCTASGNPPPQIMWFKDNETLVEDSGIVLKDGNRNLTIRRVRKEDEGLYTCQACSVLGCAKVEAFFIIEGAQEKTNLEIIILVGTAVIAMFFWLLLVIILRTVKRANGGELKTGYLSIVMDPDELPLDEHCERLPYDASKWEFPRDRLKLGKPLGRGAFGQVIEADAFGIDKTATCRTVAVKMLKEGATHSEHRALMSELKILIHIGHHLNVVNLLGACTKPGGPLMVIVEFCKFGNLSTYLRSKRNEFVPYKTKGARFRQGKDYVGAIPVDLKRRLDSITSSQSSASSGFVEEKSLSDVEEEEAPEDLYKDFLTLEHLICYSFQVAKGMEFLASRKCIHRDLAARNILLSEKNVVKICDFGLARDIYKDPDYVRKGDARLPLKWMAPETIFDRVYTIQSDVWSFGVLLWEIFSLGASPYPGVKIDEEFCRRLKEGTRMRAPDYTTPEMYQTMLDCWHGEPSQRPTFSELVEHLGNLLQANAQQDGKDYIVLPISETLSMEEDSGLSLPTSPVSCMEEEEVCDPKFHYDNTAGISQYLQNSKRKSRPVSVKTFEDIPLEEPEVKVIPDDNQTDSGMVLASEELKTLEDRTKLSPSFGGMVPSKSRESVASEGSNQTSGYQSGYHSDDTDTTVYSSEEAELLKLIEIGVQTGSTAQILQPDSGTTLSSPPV
T8 sequence (P08581 25-1390): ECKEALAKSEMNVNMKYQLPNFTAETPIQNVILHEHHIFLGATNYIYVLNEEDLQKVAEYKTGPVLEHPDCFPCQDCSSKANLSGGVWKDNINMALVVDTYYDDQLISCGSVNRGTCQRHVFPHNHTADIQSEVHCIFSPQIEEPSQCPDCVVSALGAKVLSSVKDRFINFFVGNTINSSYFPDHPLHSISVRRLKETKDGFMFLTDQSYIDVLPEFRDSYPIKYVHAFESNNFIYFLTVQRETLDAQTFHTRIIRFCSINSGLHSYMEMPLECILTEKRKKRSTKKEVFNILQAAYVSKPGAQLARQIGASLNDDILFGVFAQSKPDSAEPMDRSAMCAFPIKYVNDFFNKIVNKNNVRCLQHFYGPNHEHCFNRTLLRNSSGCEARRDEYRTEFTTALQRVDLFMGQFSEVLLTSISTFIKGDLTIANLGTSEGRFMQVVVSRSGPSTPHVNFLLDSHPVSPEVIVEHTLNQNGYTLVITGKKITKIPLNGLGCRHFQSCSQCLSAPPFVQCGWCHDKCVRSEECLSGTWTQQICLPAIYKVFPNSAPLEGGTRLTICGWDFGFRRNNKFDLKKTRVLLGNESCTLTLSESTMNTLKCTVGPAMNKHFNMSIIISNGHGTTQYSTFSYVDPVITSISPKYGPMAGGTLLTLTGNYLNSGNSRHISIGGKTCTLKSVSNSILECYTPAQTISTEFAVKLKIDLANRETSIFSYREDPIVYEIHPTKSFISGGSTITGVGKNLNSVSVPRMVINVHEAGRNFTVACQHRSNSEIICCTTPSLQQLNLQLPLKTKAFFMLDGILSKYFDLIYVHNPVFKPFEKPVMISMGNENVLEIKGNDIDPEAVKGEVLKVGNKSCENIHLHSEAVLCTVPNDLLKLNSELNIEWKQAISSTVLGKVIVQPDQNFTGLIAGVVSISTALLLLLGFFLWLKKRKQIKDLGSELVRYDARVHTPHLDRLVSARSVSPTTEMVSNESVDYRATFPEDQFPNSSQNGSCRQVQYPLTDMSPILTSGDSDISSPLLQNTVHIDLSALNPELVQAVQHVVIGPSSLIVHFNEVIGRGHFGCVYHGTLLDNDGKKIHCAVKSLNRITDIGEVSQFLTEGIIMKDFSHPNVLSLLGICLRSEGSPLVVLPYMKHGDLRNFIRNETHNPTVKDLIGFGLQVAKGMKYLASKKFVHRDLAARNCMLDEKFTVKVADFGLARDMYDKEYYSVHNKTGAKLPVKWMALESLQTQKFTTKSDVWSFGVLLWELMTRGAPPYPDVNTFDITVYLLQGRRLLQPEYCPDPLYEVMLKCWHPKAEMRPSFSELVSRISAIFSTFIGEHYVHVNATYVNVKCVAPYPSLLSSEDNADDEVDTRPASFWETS
T10 sequence (P08069 31-1367): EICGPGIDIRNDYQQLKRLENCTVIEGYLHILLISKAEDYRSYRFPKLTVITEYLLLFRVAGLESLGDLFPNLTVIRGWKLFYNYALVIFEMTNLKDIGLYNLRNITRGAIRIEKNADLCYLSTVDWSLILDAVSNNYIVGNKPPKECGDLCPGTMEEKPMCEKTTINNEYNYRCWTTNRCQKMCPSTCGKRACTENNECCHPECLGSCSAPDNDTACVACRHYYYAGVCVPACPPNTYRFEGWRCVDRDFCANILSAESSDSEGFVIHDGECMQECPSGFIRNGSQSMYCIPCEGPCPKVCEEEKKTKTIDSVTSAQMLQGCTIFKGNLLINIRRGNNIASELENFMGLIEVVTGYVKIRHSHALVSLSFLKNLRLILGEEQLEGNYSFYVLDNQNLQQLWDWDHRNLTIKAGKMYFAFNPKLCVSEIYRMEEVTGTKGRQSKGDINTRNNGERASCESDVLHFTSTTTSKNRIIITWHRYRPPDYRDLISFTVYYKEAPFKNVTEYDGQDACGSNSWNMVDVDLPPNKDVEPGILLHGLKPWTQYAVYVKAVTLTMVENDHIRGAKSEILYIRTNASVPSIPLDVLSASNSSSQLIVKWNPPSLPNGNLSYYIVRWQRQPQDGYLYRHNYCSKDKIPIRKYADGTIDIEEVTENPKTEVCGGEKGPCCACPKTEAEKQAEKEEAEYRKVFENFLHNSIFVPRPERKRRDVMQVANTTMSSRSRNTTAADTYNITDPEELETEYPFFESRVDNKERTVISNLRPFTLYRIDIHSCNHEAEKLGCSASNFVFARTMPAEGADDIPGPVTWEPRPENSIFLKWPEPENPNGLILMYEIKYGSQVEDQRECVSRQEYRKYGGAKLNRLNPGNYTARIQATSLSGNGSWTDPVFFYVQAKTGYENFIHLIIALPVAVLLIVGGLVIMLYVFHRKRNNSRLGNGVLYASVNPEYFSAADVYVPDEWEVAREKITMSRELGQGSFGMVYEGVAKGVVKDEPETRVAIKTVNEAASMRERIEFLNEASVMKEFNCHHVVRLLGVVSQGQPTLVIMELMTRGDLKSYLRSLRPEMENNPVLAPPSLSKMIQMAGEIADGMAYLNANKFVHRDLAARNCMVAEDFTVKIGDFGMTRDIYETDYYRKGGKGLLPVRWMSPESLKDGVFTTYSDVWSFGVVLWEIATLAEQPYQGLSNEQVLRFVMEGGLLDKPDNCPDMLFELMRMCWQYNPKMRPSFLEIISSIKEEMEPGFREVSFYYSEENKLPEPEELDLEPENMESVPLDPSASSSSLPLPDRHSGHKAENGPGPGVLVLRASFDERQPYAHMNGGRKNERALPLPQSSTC
T9 sequence (Q9Y243 whole entry, the tested form may be a part): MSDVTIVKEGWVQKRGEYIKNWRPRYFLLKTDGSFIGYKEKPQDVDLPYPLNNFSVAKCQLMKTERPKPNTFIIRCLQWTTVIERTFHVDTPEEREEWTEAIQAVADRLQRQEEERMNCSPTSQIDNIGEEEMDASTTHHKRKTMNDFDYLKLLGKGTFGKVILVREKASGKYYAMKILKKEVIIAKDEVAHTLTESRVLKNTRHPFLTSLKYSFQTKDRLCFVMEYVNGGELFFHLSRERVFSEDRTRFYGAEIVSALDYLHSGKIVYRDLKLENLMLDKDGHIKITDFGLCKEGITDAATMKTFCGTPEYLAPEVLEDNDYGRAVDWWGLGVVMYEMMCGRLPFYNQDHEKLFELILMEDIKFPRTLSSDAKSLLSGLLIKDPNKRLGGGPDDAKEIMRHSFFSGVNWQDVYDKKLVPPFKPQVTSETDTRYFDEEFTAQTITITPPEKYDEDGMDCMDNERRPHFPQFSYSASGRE
T3 sequence (P06241 whole entry, species assumed, the tested form may be a part): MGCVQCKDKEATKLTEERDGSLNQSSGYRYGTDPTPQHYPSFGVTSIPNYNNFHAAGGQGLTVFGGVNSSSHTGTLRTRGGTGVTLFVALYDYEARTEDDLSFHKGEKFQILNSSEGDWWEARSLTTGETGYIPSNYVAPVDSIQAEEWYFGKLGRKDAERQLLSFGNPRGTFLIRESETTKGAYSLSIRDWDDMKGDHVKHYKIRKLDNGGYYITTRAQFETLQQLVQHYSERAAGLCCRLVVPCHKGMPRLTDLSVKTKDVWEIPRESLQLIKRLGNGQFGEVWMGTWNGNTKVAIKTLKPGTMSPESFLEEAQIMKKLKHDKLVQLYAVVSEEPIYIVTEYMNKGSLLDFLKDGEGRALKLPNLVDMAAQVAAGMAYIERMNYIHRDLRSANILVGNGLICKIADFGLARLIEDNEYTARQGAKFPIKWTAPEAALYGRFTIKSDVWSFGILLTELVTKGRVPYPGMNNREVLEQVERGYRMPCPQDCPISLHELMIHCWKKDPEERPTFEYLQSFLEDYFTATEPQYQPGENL

In the case of `COc1cc(Nc2ncnc(Nc3cc(-c4ccccc4)nn3C)n2)cc(OC)c1OC` [Compound 394], the IC50 was 0.923 to 5.54 µM at Lck; 0.923 to 5.54 µM at Src; 0.923 to 5.54 µM on Fyn; more than 10.4 µM at Itk; 8.07 to 10.4 µM at EGFR; less than 923 nM on Kdr. Moreover, the IC50 at Flt-1 was less than 923 nM; on c-Met, more than 10.4 µM; on AKT, more than 10.4 µM; on IGFR-1 it was 923 to 5540 nM; at PDGFRB, 0.923 to 5.54 µM; against Hck-1, more than 10.4 µM. In addition, the IC50 at FGFR1 lay in the range of 923 to 5540 nM.
With `NC(=O)c1cccc(Nc2ncnc(-n3c(N)nc4ccccc43)n2)c1` [Compound 395], the IC50 at Lck was 6.93 to 10.1 µM; on Src, 10.1 to 13 µM; on Fyn it was 6.93 to 10.1 µM; on Itk, 1.15 to 6.93 µM; on EGFR, more than 13 µM; on Kdr, less than 1150 nM. Besides, the IC50 on Flt-1 is less than 1150 nM; at c-Met it was 1.15 to 6.93 µM; at AKT it was 10.1 to 13 µM; at IGFR-1 it was 1150 to 6930 nM; at PDGFRB, 1.15 to 6.93 µM; against Hck-1, more than 13 µM. For the same compound, the IC50 on FGFR1 is less than 1150 nM.
Take `NC(=O)c1ccc(Nc2ncnc(-n3c(N)nc4ccccc43)n2)cc1` [Compound 396]: the IC50 at Lck was 1.15 to 6.93 µM; against Src, more than 13 µM; at Fyn it was 1.15 to 6.93 µM; on Itk it was less than 1.15 µM; at EGFR it was 6.93 to 10.1 µM; at Kdr, less than 1150 nM. Further, the IC50 is less than 1150 nM at Flt-1; 1.15 to 6.93 µM on c-Met; 6.93 to 10.1 µM at AKT; less than 1150 nM at IGFR-1; 1.15 to 6.93 µM on PDGFRB; 6.93 to 10.1 µM at Hck-1. Moreover, the IC50 at FGFR1 is less than 1150 nM.
For `COc1cc(Nc2ncnc(NC(=O)Nc3ccccc3)n2)cc(OC)c1OC` [Compound 852], the IC50 on Lck was more than 11.4 µM; against Src, more than 11.4 µM; at Fyn, more than 11.4 µM; at Itk, more than 11.4 µM; at EGFR, more than 11.4 µM; on Kdr it was 6050 to 8830 nM. Moreover, the IC50 on Flt-1 is more than 11400 nM; on c-Met it was 6.05 to 8.83 µM; on AKT, more than 11.4 µM; on IGFR-1, less than 1010 nM; on PDGFRB, 8.83 to 11.4 µM; against Hck-1, more than 11.4 µM. Further, the IC50 on FGFR1 is more than 11400 nM.
Take `COc1cc(Nc2ncnc(Nc3ccc(OCc4ccccc4)cc3)n2)cc(OC)c1OC` [Compound 926]: the IC50 at Lck was 0.871 to 5.22 µM; against Src, 0.871 to 5.22 µM; on Fyn it was 5.22 to 7.62 µM; at Itk, more than 9.79 µM; on EGFR, 0.871 to 5.22 µM; on Kdr, less than 871 nM. In addition, the IC50 at Flt-1 was 871 to 5220 nM; at c-Met, 7.62 to 9.79 µM; at AKT it was more than 9.79 µM; against IGFR-1, more than 9790 nM; on PDGFRB it was less than 0.871 µM; against Hck-1, more than 9.79 µM. The IC50 at FGFR1 lay within 871 to 5220 nM.
For `COc1cc(Nc2ncnc(Nc3ccc4[nH]ccc4c3)n2)cc(OC)c1OC` [Compound 928], the IC50 at Lck was less than 1.02 µM; against Src, less than 1.02 µM; at Fyn, more than 11.5 µM; on Itk, 6.12 to 8.92 µM; on EGFR it was less than 1.02 µM; at Kdr, less than 1020 nM. In addition, the IC50 against Flt-1 was less than 1020 nM; on c-Met, 6.12 to 8.92 µM; at AKT, 8.92 to 11.5 µM; on IGFR-1, less than 1020 nM; on PDGFRB, less than 1.02 µM; against Hck-1 it was more than 11.5 µM. The IC50 at FGFR1 lay within 1020 to 6120 nM.

These data come from patent publication US7074789B2, “Kinase inhibitors” (Amgen Inc., priority 1999, dated 2006).
